Tests used:
K562 = experiment: Cytotoxicity against human K562 cells; type: functional
[1] = Cytotoxicity against human NCI60 cells; type: functional
Escherichia coli = experiment: Induction of cross linking in DS pUC18 plasmid

| SMILES | GI50 (K562) | GI50 [1] | LC50 [1] | TGI [1] | XL50 (Escherichia coli) |
| --- | --- | --- | --- | --- | --- |
| COc1cc2c(cc1OCCCNC(=O)c1cc(NC(=O)c3cc(NC(=O)c4cc(NC(=O)CCCOc5cc6c(cc5OC)C(=O)N5CCC[C@H]5C=N6)cn4C)cn3C)cn1C)N=C[C@@H]1CCCN1C2=O | 0.037 µM | 0.014 µM | 22.9 µM | 0.49 µM | 0.23 µM |
| C=C1C[C@H]2C=Nc3cc(OCCCOc4cc5c(cc4OC)C(=O)N4CC(=C)C[C@H]4C=N5)c(OC)cc3C(=O)N2C1 [SJG-136] | 0.008 µM | 0.007 µM | – | 0.087 µM | 0.06 µM |
